In patent US20150105252A1, “SUBSTITUTED PYRAZOLES AS HERBICIDES” (E I DU PONT DE NEMOURS AND COMPANY, priority 2013, published 2015):

Experiments:
ragweed = assay: Test C postemergence; type: in vivo, Ambrosia elation; conditions: for Plant response rating (scale of 0 to 100 where 0 is no effect and 100 is complete control), Ragweed: Postemergence, 31 g ai/ha, visually evaluated after 13 to 15 days; for Ragweed plant response rating / Plant response rating, Ragweed: postemergence; for Ragweed plant response rating: 62 g ai/ha, scale 0 to 100
Text: (§1) Seeds of plant species selected from blackgrass (Alopecurus myosuroides), ryegrass, Italian (Italian ryegrass, Lolium multiflorum), wheat (winter wheat, Triticum aestivum), galium (catchweed bedstraw, Galium aparine), corn (Zea mays), crabgrass, large (large crabgrass, Digitaria sanguinalis), foxtail, giant (giant foxtail, Setaria faberii), johnsongrass (Sorghum halepense), lambsquarters (Chenopodium album), morningglory (Ipomoea coccinea), nutsedge, yellow (yellow nutsedge, Cyperus esculentus), pigweed (redroot pigweed, Amaranthus retroflexus), ragweed (common ragweed, Ambrosia elation), soybean (Glycine max), barnyardgrass (Echinochloa crus-galli), oilseed rape (Brassica napus), waterhemp (common waterhemp, Amaranthus rudis), oat, wild (wild oat, Avena fatua), kochia (Kochia scoparia), Surinam grass (Brachiaria decumbens), foxtail, green (green foxtail, Setaria viridis), goosegrass (Eleusine indica), bromegrass, downy (downy bromegrass, Bromus tectorum), nightshade (eastern black nightshade, Solanum ptycanthum), cocklebur (common cocklebur, Xanthium strumarium), cupgrass, woolly (woolly cupgrass, Eriochloa villosa), bermudagrass (Cynodon dactylon), sunflower, (common oilseed sunflower, Helianthus annuus), Russian thistle (Salsola kali), and velvetleaf (Abutilon theophrasti) were planted into a blend of loam soil and sand and treated preemergence with test chemicals formulated in a non-phytotoxic solvent mixture which included a surfactant.
(§2) At the same time, plants selected from these crop and weed species and also chickweed (common chickweed, Stellaria media), canarygrass (littleseed canarygrass, Phalaris minor), and deadnettle (henbit deadnettle, Lamium amplexicaule), were planted in pots containing Redi-Earth® planting medium (Scotts Company, 14111 Scottslawn Road, Marysville, Ohio 43041) comprising spaghnum peat moss, vermiculite, wetting agent and starter nutrients and treated with postemergence applications of test chemicals formulated in the same manner. Plants ranged in height from 2 to 18 cm (1- to 4-leaf stage) for postemergence treatments. Treated plants and controls were maintained in a greenhouse for 13 to 15 days, after which time all species were compared to controls and visually evaluated. Plant response ratings, summarized in Table C, are based on a scale of 0 to 100 where 0 is no effect and 100 is complete control. A dash (-) response means no test result.

ryegrass, Italian = assay: Test C postemergence; type: in vivo, Lolium multiflorum; conditions: for Plant response rating (scale of 0 to 100 where 0 is no effect and 100 is complete control), Ryegrass, Italian: Postemergence, 31 g ai/ha, visually evaluated after 13 to 15 days; for Ryegrass, Italian plant response rating / Plant response rating, Ryegrass, Italian: postemergence; for Ryegrass, Italian plant response rating: 62 g ai/ha, scale 0 to 100
Outline: (§3)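 Pre- and postemergence greenhouse screen; vehicle was a non-phytotoxic solvent mix with surfactant. Preemergence: treatment applied right after sowing into loam and sand. Postemergence: treated at 1–4 leaves. Visual rating at 13–15 days, 100 = complete control.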

soybean = assay: Test C preemergence; type: in vivo, Glycine max
Outline: as §3

pigweed = assay: Test C preemergence; type: in vivo, Amaranthus retroflexus
Text: as §1, §2

[1] = 250 g ai/ha, scale 0 to 100 (0 no effect, 100 complete control)
[2] = 125 g ai/ha, scale 0 to 100, 0 no effect, 100 complete control
[3] = preemergence, 31 g ai/ha, visual rating, scale 0 to 100 (0 no effect, 100 complete control), 13 to 15 days
[4] = preemergence, 62 g ai/ha, scale 0 to 100 (0 no effect, 100 complete control), 13 to 15 days
[5] = preemergence, 125 g ai/ha, scale 0 to 100, 0 is no effect, 100 is complete control
[6] = preemergence, 125 g ai/ha, 13 to 15 days, scale 0 to 100, 0 = no effect, 100 = complete control
[7] = preemergence, 250 g ai/ha, scale 0 to 100, 0 is no effect, 100 is complete control
[8] = Preemergence, rate head not shown (block before 16 g ai/ha), scale 0 to 100

Row | Compound | Plant response rating (scale of 0 to 100 where 0 is no effect and 100 is complete control), Ragweed (ragweed) | Ragweed plant response rating (ragweed) | Plant response rating, Ragweed (ragweed; [1]) | Plant response rating, Ragweed (ragweed; [2]) | Plant response rating (scale of 0 to 100 where 0 is no effect and 100 is complete control), Ryegrass, Italian (ryegrass, Italian) | Ryegrass, Italian plant response rating (ryegrass, Italian) | Plant response rating, Ryegrass, Italian (ryegrass, Italian; [1]) | Plant response rating, Ryegrass, Italian (ryegrass, Italian; [2]) | Soybean plant response rating (soybean; [3]) | Soybean plant response rating (soybean; [4]) | Pigweed plant response rating (pigweed; [3]) | Pigweed plant response rating (pigweed; [4]) | Plant response rating, Soybean (soybean; [6]) | Plant response rating, Pigweed (pigweed; [6]) | Soybean plant response rating (soybean; [7]) | Pigweed plant response rating (pigweed; [7]) | also measured
1 | CCc1cc(C(=O)NOC(C)C)nn1Cc1ccnc(OC(F)F)c1 [Compound 126] | 30 | 35 | 80 | 55 | 5 | 5 | 15 | 10 | 25 | 40 | 100 | 85 |  |  |  |  | Plant response rating (scale of 0 to 100), Soybean (soybean; Preemergence, 250 g ai/ha): 98; Soybean plant response rating (soybean; [5]): 75; Plant response rating (scale of 0 to 100), Pigweed (pigweed; Preemergence, 250 g ai/ha): 100; Pigweed plant response rating (pigweed; [5]): 100
2 | CCONC(=O)c1cc(CC)n(Cc2ccnc(OC(F)F)c2)n1 [Compound 131] | 5 | 30 | 85 | 60 | 5 | 5 | 10 | 10 | 30 | 40 | 100 | 100 | 85 | 100 |  |  | Plant response rating (scale of 0 to 100), Soybean (soybean; Preemergence, 250 g ai/ha): 98; Plant response rating (scale of 0 to 100), Pigweed (pigweed; Preemergence, 250 g ai/ha): 100
3 | CCCNC(=O)c1cc(OCC)n(Cc2ccnc(OC(F)F)c2)n1 [Compound 136] | 15 | 35 | 70 | 40 | 5 | 5 | 30 | 5 | 45 | 75 | 70 | 70 | 95 | 60 | 100 | 100 | 
4 | O=C(NC1CC1)c1cc(CCCl)n(Cc2ccnc(C(F)(F)F)c2)n1 [Compound 144] | 10 |  | 75 | 35 | 5 |  | 5 | 5 | 5 | 50 | 98 | 100 | 80 | 100 | 98 | 100 | 
5 | CCOc1cc(C(=O)NOC(C)C)nn1Cc1ccnc(C(F)(F)F)c1 [Compound 153] |  |  | 85 | 40 |  |  | 5 | 5 | 5 | 10 | 20 | 95 | 45 | 100 | 80 | 98 | 
6 | CCNC(=O)c1cc(CC)n(Cc2cc(C(F)(F)F)nn2C)n1 [Compound 154] |  |  | 35 | 15 |  |  | 5 | 0 | 35 | 80 | 85 | 98 | 95 | 100 | 98 | 100 | 
7 | CCCc1cc(C(=O)NC(C)C)nn1Cc1ccnc(C(F)(F)F)c1 [Compound 186] |  |  | 70 | 55 |  |  | 60 | 10 | 85 | 65 | 100 | 100 | 98 | 100 | 98 | 100 | 
8 | CCCNC(=O)c1cc(OCC)n(Cc2ccnc(C(F)(F)F)c2)n1 [Compound 187] |  |  | 85 | 50 |  |  | 30 | 5 | 85 | 95 | 70 | 100 | 98 | 100 | 98 | 100 | 
9 | CCc1cc(C(=O)NC2CC2)nn1Cc1ccnc(Br)c1 [Compound 220] |  |  | 45 | 50 |  |  | 5 | 5 |  | 10 |  | 100 | 35 | 100 | 60 | 100 | Plant response rating, Soybean (soybean; [8]): 10; Plant response rating, Pigweed (pigweed; [8]): 65
10 | CCc1cc(C(=O)NCC(F)(F)F)nn1Cc1ccnc(Br)c1 [Compound 224] |  |  | 35 | 10 |  |  | 5 | 5 |  | 40 |  | 100 | 65 | 100 | 90 | 100 | Plant response rating, Soybean (soybean; [8]): 10; Plant response rating, Pigweed (pigweed; [8]): 100
